The record followed here is patent publication US20140228299A1, “PROPHYLACTIC AND THERAPEUTIC AGENT FOR NEUROLOGICAL DISEASES USING LIPOPROTEINS AND PROPHYLACTIC AND THERAPEUTIC METHOD FOR NEUROLOGICAL DISEASES” (National University Corporation Tokyo Medical and Dental …, priority 2011, published 2014).

The subject of assay [1] is α2-macroglobulin released from glia cells. Description: α2-macroglobulin released from primary cultured glia cells (immunoblotting of culture supernatant). The class given is cell-based. The conditions noted are these: 100 or 1,000 ng/mL; culture supernatant after 24 hours. The method, then: This example was to examine the amount of α2-macroglobulin released from the glia cells. To a culture mixture of the glia cells obtained by the primary culture, human lipoprotein containing apoE (100 or 1,000 ng/mL) was added, followed by collection of a culture supernatant after 24 hours. After the resulting supernatant was subjected to SDS-PAGE, it was detected by the immunoblotting using anti-α2-macroglobulin antibody. As a result, a decrease in the amount of α2-macroglobulin released from the glia cells was observed by the addition of the human lipoprotein containing apoE (FIG. 18).
In general terms: Immunoblotting shows a protein as a band on a membrane.

The test system of assay [2] is glycogen synthase kinase 3β (GSK3β). Description: GSK3β phosphorylation level in RGC after glutamic acid treatment (Western blotting). Type of assay: cell-based, rat. The conditions noted are these: cells collected 18 hours after treatment with glutamic acid. The method, then:
The apoptosis-like cells were computed by the nucleus staining with Hoechst 33342. […] The retinal glia cells were collected in 18 hours after treatment with glutamic acid, followed by Western blotting in which a rabbit anti-phosphorylated GSK3β (p-GSK3β) antibody and a rabbit anti-GSK3β antibody were used.
The immune blotting used in the above example was carried out in a manner as will be described below. Specifically, the lipoprotein obtained in each of the above examples was dissolved in 62.5 mM Tris-HCl (pH 6.8), 10% glycerol, 2% sodium dodecyl sulfate (SDS) and 5% β-mercaptoethanol (a sample buffer), and the resulting mixture was boiled for 5 minutes. The resulting protein was separated by electrophoresis using 0.1% SDS-containing polyacrylamide gel and then transferred to a polyvinylidene difluoride membrane. […]

As to “E-LP: reconstituted lipoprotein of 1-palmitoyl-2-oleyl-glycerophosphocoline, cholesterol and recombinant human apolipoprotein E, molar ratio 100:10:1 or 100:0:1”, the “amount of α2-macroglobulin released from the glia cells” value in assay [1] is “decrease”. Take “LP: reconstituted lipoprotein of POPC, cholesterol and recombinant human apolipoprotein E3”: the “phosphorylation level of GSK3β” value in assay [2] is given as “recovery”.
